Data from patent publication US20230159556A1, “NOVEL PROTEIN KINASE INHIBITORS” (TENOVA PHARMACEUTICALS INC., priority 2020, published 2023).

What was measured:
EGFR_L858R/T790M/C797S = target: T1, EGFR_L858R/T790M/C797S (Homo sapiens, UniProt P00533, C797S/L858R/T790M); test: In vitro biochemical kinase assay (33P-ATP filter-binding, Reaction Biology)
T1 construct: Reaction Biology Corporation (contract assay provider)
Procedure: The biochemical kinase assay was performed at Reaction Biology Corporation (www.reactionbiology.com, Malvern, Pa.) following procedures described in the reference (Anastassiadis, T, et al, Nature Biotechnology, 2011, 29, 1039). Base Reaction buffer includes 20 mM Hepes (pH 7.5), 10 mM MgCl2, 1 mM EGTA, 0.02% Brij35, 0.02 mg/ml BSA, 0.1 mM Na3VO4, 2 mM DTT and 1% DMSO. Required cofactors are added individually to each kinase reaction. Testing compounds were dissolved in 100% DMSO to specific concentration. The serial dilution was conducted by Integra Viaflo Assist in DMSO. Compounds in 100% DMSO are into the kinase reaction mixture by Acoustic technology (Echo550; nanoliter range), incubate for 20 min at room temperature, followed by ^33P-ATP and incubation for 2 hours at room temperature. Radioactivity was then detected by filter-binding method. Kinase activity data were expressed as the percent remaining kinase activity in test samples compared to vehicle (dimethyl sulfoxide) reactions. IC50 values and curve fits were obtained using Prism (GraphPad Software).

Ba/F3_WT cell = test: BaF3 cell proliferation assay (CelltiterGlo, 72 hr); format: cell-based; conditions: Mus musculus, 72 hr incubation
Procedure: (§1) The BaF3 cell proliferation assay was performed at Pharmaron (www.pharmaron.com, Beijing, China). The Ba/F3_WT and Ba/F3_Del19/T790M/C797S cell lines were maintained in 1640 medium containing 10% FBS, 1*PS and 1*Glutamax. Only cells with viability greater than 90% are used for assays. Dispense 30 μl of cell suspension at 700/well into 384 well microplate, add 30 nl compound solution into 384 cell plate by Echo, cells were incubated for 72 hr in 37° C./5% CO2 incubator, add 30 μl reagent CelltiterGlo assay kit (CTG, Promega) per well and shake plates, incubate the plate (avoiding light) at 37° C./5% CO2 for 30 min. and read the luminescence by Envision. The luminescence values were converted to % Inhibition. Calculate IC50 by fitting % inhibition values and log of compound concentrations to nonlinear regression (dose response−variable slope) with Graphpad 5.0.
(§2) Y=Bottom+(Top−Bottom)/(1+10^((Log IC50−X)*HillSlope))
(§3) X: log of inhibitor concentration; Y: % Inhibition.

[1] = target: Ba/F3_EGFR_del19/T790M/C797S cell (Homo sapiens, UniProt P00533, T790M/C797S, cells depend on it, form not given); test: as above; format: cell-based; conditions: 72 hr incubation; read-out: IC50 (nM, Ba/F3_EGFR_del19/T790M/C797S cell proliferation)
Ba/F3_EGFR_del19/T790M/C797S cell, sequence (P00533 with tags, fused parts or gaps DEL746-750/T790M/C797S, form open): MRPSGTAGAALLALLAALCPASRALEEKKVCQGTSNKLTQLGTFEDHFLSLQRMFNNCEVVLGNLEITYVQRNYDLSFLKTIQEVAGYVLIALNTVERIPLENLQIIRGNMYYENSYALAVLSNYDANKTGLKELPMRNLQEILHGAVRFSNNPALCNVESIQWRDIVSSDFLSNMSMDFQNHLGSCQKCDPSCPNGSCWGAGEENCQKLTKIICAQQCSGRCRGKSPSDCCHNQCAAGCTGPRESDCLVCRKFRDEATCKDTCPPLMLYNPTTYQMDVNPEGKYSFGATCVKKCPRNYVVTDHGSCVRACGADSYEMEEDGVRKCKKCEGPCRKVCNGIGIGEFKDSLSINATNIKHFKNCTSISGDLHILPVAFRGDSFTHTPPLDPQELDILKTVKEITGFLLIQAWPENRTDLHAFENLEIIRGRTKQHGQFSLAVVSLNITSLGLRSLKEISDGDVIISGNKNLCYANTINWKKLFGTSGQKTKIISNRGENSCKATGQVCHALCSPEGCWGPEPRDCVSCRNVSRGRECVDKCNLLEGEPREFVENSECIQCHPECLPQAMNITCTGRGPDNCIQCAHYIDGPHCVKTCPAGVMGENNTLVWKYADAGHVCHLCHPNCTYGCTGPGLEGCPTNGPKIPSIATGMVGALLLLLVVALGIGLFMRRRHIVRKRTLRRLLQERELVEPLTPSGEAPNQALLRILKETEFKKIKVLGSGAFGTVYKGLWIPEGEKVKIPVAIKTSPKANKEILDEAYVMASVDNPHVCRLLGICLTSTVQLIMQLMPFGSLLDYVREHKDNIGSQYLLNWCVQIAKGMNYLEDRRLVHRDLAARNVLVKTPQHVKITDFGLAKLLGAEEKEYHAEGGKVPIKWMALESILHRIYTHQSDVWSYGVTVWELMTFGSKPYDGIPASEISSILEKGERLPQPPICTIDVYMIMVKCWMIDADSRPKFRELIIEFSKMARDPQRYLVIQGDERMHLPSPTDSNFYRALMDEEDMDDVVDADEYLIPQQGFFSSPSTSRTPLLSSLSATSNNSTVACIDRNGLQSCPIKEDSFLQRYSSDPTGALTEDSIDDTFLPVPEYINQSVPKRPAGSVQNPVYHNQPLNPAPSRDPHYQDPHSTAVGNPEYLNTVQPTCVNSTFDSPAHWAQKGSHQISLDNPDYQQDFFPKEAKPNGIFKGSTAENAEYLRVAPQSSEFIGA
Procedure: as §1, §2, §3

T1 sequence (P00533 25-1210 T790M/C797S/L858R): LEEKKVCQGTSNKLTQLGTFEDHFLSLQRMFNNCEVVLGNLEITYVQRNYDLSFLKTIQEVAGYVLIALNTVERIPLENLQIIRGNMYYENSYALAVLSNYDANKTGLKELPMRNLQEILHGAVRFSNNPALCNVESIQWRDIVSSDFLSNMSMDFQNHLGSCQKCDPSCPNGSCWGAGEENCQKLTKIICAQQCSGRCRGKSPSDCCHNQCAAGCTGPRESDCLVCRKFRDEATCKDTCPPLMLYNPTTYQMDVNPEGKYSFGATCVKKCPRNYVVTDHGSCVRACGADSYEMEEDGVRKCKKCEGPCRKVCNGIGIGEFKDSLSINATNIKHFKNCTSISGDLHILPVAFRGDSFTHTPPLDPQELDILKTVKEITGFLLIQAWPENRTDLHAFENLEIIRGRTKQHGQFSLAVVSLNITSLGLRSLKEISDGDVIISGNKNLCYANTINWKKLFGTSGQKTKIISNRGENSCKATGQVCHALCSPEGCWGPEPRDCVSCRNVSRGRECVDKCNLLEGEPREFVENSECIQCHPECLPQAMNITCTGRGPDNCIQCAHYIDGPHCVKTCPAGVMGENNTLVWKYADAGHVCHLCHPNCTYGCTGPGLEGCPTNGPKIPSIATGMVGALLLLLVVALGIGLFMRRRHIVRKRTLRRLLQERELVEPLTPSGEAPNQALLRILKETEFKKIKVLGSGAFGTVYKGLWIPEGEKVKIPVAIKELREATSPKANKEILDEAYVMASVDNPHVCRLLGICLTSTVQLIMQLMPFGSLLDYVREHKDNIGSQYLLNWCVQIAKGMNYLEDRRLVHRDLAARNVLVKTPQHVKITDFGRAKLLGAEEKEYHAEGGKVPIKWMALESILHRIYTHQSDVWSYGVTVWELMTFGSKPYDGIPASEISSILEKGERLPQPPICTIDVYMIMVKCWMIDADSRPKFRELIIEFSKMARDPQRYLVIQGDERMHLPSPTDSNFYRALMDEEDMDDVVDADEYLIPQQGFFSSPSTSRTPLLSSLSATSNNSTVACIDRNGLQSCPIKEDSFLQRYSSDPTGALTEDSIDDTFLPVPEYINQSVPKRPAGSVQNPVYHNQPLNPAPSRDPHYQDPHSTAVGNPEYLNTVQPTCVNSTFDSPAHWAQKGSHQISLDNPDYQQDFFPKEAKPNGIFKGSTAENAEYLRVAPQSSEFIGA

IC50 (EGFR_L858R/T790M/C797S) [nM] | IC50 (Ba/F3_WT cell) [nM] | GI50 [1] [nM] | Structure (SMILES)
2.7 | 3430 | 538 | CCS(=O)(=O)N(C)c1cc2ccc1Nc1nc(ncc1Cl)Nc1cc(c(N3CCN(C)CC3)cc1OC)CCCCCO2 [Compound A8, N-(3^5-chloro-1^6-methoxy-1^4-(4-methylpiperazin-1-yl)-6-oxa-2,4-diaza-3(2,4)-pyrimidina-1(1,3),5(1,4)-dibenzenacycloundecaphane-5^2-yl)-N-methylethanesulfonamide]
1.4 | 2970 | 194 | COc1cc(N2C[C@H]3CN(C)C[C@H]3C2)c2cc1Nc1ncc(Cl)c(n1)Nc1ccc(cc1N(C)S(C)(=O)=O)OCCCCC2 [Compound A28, N-(3^5-chloro-1^6-methoxy-1^4-((cis-3,6)-5-methylhexahydropyrrolo[3,4-c]pyrrol-2(1H)-yl)-6-oxa-2,4-diaza-3(2,4)-pyrimidina-1(1,3),5(1,4)-dibenzenacycloundecaphane-5^2-yl)-N-methylmethanesulfonamide]
2 | 3770 | 108 | COc1cc(N2CCN(C)CC2)c2cc1Nc1ncc(C(F)(F)F)c(n1)Nc1ccc(cc1N(C)S(C)(=O)=O)OCCCCC2 [Compound A13, N-(1^6-methoxy-1^4-(4-methylpiperazin-1-yl)-3^5-(trifluoromethyl)-6-oxa-2,4-diaza-3(2,4)-pyrimidina-1(1,3),5(1,4)-dibenzenacycloundecaphane-5^2-yl)-N-methylmethanesulfonamide]
250 | 1790 | 1110 | COc1cc(N2CCC(N3CCN(C)CC3)CC2)c2cc1Nc1ncc(Cl)c(n1)Nc1ccc(cc1S(=O)(=O)C(C)C)OCCCCC2 [Compound A26, 3^5-chloro-5^2-(isopropylsulfonyl)-16-methoxy-1^4-(4-(4-methylpiperazin-1-yl)piperidin-1-yl)-6-oxa-2,4-diaza-3(2,4)-pyrimidina-1(1,3),5(1,4)-dibenzenacycloundecaphane]
12.7 | > 10000 | 154 | COc1cc(N2CCN(C(C)=O)CC2)c2cc1Nc1ncc(Cl)c(n1)Nc1ccc(cc1N(C)S(C)(=O)=O)OCCCCC2 [Compound A31, N-(1^4-(4-acetylpiperazin-1-yl)-3^5-chloro-1^6-methoxy-6-oxa-2,4-diaza-3(2,4)-pyrimidina-1(1,3),5(1,4)-dibenzenacycloundecaphane-5^2-yl)-N-methylmethanesulfonamide]
0.5 | 1840 | 125 | CCN(c1cc2ccc1Nc1nc(ncc1Cl)Nc1cc(c(N3CCN(C)CC3)cc1OC)CCCCCO2)S(C)(=O)=O [Compound A10, N-(3^5-chloro-1^6-methoxy-1^4-(4-methylpiperazin-1-yl)-6-oxa-2,4-diaza-3(2,4)-pyrimidina-1(1,3),5(1,4)-dibenzenacycloundecaphane-5^2-yl)-N-ethylmethanesulfonamide]
46.5 | 3320 | 252 | COc1cc(N2CCN(C)CC2)c2cc1Nc1ncc(Cl)c(n1)Nc1ccc(cc1N(C)S(C)(=O)=O)OCCCC2 [Compound A4, N-(3^5-chloro-1^6-methoxy-1^4-(4-methylpiperazin-1-yl)-6-oxa-2,4-diaza-3(2,4)-pyrimidina-1(1,3),5(1,4)-dibenzenacyclodecaphane-5^2-yl)-N-methylmethanesulfonamide]
2.6 | 2660 | 157 | CCN(c1cc2ccc1Nc1nc(ncc1Cl)Nc1cc(c(N3CCN(C)CC3)cc1OC)CCCCCCO2)S(C)(=O)=O [Compound A23, N-(3^5-chloro-1^6-methoxy-1^4-(4-methylpiperazin-1-yl)-6-oxa-2,4-diaza-3(2,4)-pyrimidina-1(1,3),5(1,4)-dibenzenacyclododecaphane-5^2-yl)-N-ethylmethanesulfonamide]
